Measurements reported in patent US20150031102A1, “METHODS AND COMPOSITIONS FOR ENHANCED PRODUCTION OF BUTANOL BY CLOSTRIDIA” (Butrolix LLC, priority 2012, published 2015).

Tested on: Clostridium acetobutylicum strain ATCC 824
Assay: Sequential batch transfer in 24-well culture plates (butanol, residual glucose, butanol yield and productivity)
Format: cell-based
Conditions: for Residual glucose concentration: initial glucose 60 g/L
Description: Each well contained 1.5 mL of growth medium. Peptide was added to each well at the indicated concentration (0, 25, 50, and 100 nM). Every 24 hours fresh medium and peptide treatment were added to a new column of wells then 1.5 μL of the previous day culture was transferred to the new well. Wells were harvested for glucose and butanol analysis after 96 hours of growth. Transfers 1, 4, 7, 10, 13, 16, […].
Briefly, Clostridium spores were germinated in a suitable growth medium for 18-24 hours then […] was transferred to 1.5 mL of fresh medium in each of four wells on a 24-well culture plate. Three of the wells had been treated with 25 nM, 50 nM and 100 nM of peptide, respectively while the fourth well was untreated. Thereafter, every 24 hours […] of each subculture was transferred to 1.5 mL of fresh medium that contained the same peptide treatment or no treatment. Transfers of successive subcultures were done for 24 days, and each subculture was grown for 96 hours before being harvested. Culture supernatants were recovered following centrifugation and were analyzed for butanol and residual glucose concentrations. Determination of optimum peptide treatment levels was based on a graphical comparison of the concentration of butanol in each of the four culture wells for sequential transfers 1, 4, 7, 10, 13, 16, 19, 22 and 24.
Clostridium acetobutylicum strain ATCC 824 was used in all experiments and the growth medium used for sequential batch transfer, time course, and continuous culture experiments contained yeast extract, casamino acids, L-cysteine, L-asparagine, phosphate buffer, trace minerals, and 6% glucose. What are believed to be quorum-sensing peptides that were used in the experiments were chemically synthesized peptides SEQ ID NO: 143 (amino acid sequence: SYPGWSW) and SEQ ID NO: 144 (amino acid sequence: ILILISG). Routine growth of the bacteria as well as the sequential batch and time course experiments were conducted in a Form a Scientific Model 1029 anaerobic gas chamber at 32° C. Continuous cultures were performed at 32° C. using duplicate New Brunswick Scientific BioFlo 3000 apparati with a dilution rate of 0.01 volume per hour, 75 rpm agitation, and nitrogen gas sparging. Optical density of culture samples was measured at 600 nm in a Beckman DU 600 series spectrophotometer and glucose was analyzed using a YSI Model 2700 Select Biochemistry Analyzer with internal glucose calibration. Butanol concentrations were determined by measuring experimental and standard samples using a Varian Saturn 3 Gas Chromatograph/Mass Spectrometer and calculating butanol concentrations using standard curves.
(§1) Sequential batch transfer experiments were carried out in 24-well culture plates that contained 1.5 mL of medium per well. Peptide was added to each well at the indicated concentrations of 0 nM (control), 25 nM, 50 nM, or 100 nM. Every 24 hours, fresh medium and peptide treatments were added to a new column of wells. Then, 1.5 uL of the previous day culture was transferred to the new well. Wells were harvested for glucose and butanol analysis after 96 hours of growth; transfers 1, 4, 7, 10, 13, 16, 19, 22, and 24 were analyzed. Two representative experiments are shown in Tables 30 and 31 and FIGS. 14 and 15.
as §1, with “32” for “30”, “33” for “31”, “16” for “14”, “17.” for “15.”

[1] = 50 nM peptide, transfer 19, after 96 hours of culture, Expt. 1
[2] = 50 nM peptide, transfer 22, after 96 hours of culture, Expt. 1
[3] = 50 nM peptide, transfer 24, after 96 hours of culture, Expt. 1
[4] = 100 nM peptide, transfer 1, after 96 hours of culture, Expt. 1
[5] = 100 nM peptide, transfer 4, after 96 hours of culture, Expt. 1
[6] = 100 nM peptide, transfer 7, after 96 hours of culture, Expt. 1
[7] = 100 nM peptide, transfer 10, after 96 hours of culture, Expt. 1
[8] = 100 nM peptide, transfer 13, after 96 hours of culture, Expt. 1
[9] = 100 nM peptide, transfer 16, after 96 hours of culture, Expt. 1
[10] = 100 nM peptide, transfer 19, after 96 hours of culture, Expt. 1
[11] = 100 nM peptide, transfer 22, after 96 hours of culture, Expt. 1
[12] = 100 nM peptide, transfer 24, after 96 hours of culture, Expt. 1
[13] = BP1106213 first experiment, 25 nM, transfer 10

“ILILISG (Derived from Clostridium acetobutylicum SEQ ID NO: 110) [peptide SEQ ID NO: 144]” was tested, and the Butanol concentration [1] was 8.40 g/L, the Butanol productivity [1] was 0.09 g butanol/L-h and the Butanol yield [1] was 0.14 g butanol/g/glucose. The Butanol concentration (50 nM peptide, transfer 19, after 96 hours of culture, Expt. 2 (repeat), Table 58) was 4.66 g/L, the Residual glucose concentration [1] was 0.0 g/L and the Residual glucose concentration (50 nM peptide, transfer 19, after 96 hours of culture, Expt. 2 (repeat), Table 45) was 49.2 g/L. The Butanol concentration [2] was 14.14 g/L, the Butanol productivity [2] was 0.15 g butanol/L-h and the Butanol yield [2] was 0.23 g butanol/g/glucose. For the same substance, the Butanol concentration (50 nM peptide, transfer 22, after 96 hours of culture, Expt. 2 (repeat), Table 58) was 4.22 g/L, the Residual glucose concentration [2] was 12.6 g/L and the Residual glucose concentration (50 nM peptide, transfer 22, after 96 hours of culture, Expt. 2 (repeat), Table 45) was 40.2 g/L. It also gave a Butanol concentration [3] of 6.90 g/L, a Butanol productivity [3] of 0.07 g butanol/L-h and a Butanol yield [3] of 0.11 g butanol/g/glucose. The Butanol concentration (50 nM peptide, transfer 24, after 96 hours of culture, Expt. 2 (repeat), Table 58) was 1.87 g/L, the Residual glucose concentration [3] was 43.2 g/L and the Residual glucose concentration (50 nM peptide, transfer 24, after 96 hours of culture, Expt. 2 (repeat), Table 45) was 0.0 g/L. For the same substance, the Butanol concentration [4] was 1.78 g/L, the Butanol productivity [4] was 0.02 g butanol/L-h and the Butanol yield [4] was 0.03 g butanol/g/glucose. It also gave a Butanol concentration (100 nM peptide, transfer 1, after 96 hours of culture, Expt. 2 (repeat), Table 58) of 1.19 g/L, a Residual glucose concentration [4] of 48.5 g/L and a Residual glucose concentration (100 nM peptide, transfer 1, after 96 hours of culture, Expt. 2 (repeat), Table 45) of 55.8 g/L. It also gave a Butanol concentration [5] of 7.17 g/L, a Butanol productivity [5] of 0.07 g butanol/L-h and a Butanol yield [5] of 0.12 g butanol/g/glucose. For the same substance, the Butanol concentration (100 nM peptide, transfer 4, after 96 hours of culture, Expt. 2 (repeat), Table 58) was 2.12 g/L, the Residual glucose concentration [5] was 0.0 g/L and the Residual glucose concentration (100 nM peptide, transfer 4, after 96 hours of culture, Expt. 2 (repeat), Table 45) was 49.9 g/L. For the same substance, the Butanol concentration [6] was 5.62 g/L, the Butanol productivity [6] was 0.06 g butanol/L-h and the Butanol yield [6] was 0.09 g butanol/g/glucose. For the same substance, the Butanol concentration (100 nM peptide, transfer 7, after 96 hours of culture, Expt. 2 (repeat), Table 58) was 2.11 g/L, the Residual glucose concentration [6] was 0.0 g/L and the Residual glucose concentration (100 nM peptide, transfer 7, after 96 hours of culture, Expt. 2 (repeat), Table 45) was 49.4 g/L. For the same substance, the Butanol concentration [7] was 7.91 g/L, the Butanol productivity [7] was 0.08 g butanol/L-h and the Butanol yield [7] was 0.13 g butanol/g/glucose. For the same substance, the Butanol concentration (100 nM peptide, transfer 10, after 96 hours of culture, Expt. 2 (repeat), Table 58) was 2.07 g/L, the Residual glucose concentration [7] was 0.1 g/L and the Residual glucose concentration (100 nM peptide, transfer 10, after 96 hours of culture, Expt. 2 (repeat), Table 45) was 51.2 g/L. It also gave a Butanol concentration [8] of 6.37 g/L, a Butanol productivity [8] of 0.07 g butanol/L-h and a Butanol yield [8] of 0.11 g butanol/g/glucose. For the same substance, the Butanol concentration (100 nM peptide, transfer 13, after 96 hours of culture, Expt. 2 (repeat), Table 58) was 1.54 g/L, the Residual glucose concentration [8] was 0.1 g/L and the Residual glucose concentration (100 nM peptide, transfer 13, after 96 hours of culture, Expt. 2 (repeat), Table 45) was 49.7 g/L. The Butanol concentration [9] was 7.11 g/L, the Butanol productivity [9] was 0.07 g butanol/L-h and the Butanol yield [9] was 0.12 g butanol/g/glucose. The Butanol concentration (100 nM peptide, transfer 16, after 96 hours of culture, Expt. 2 (repeat), Table 58) was 5.68 g/L, the Residual glucose concentration [9] was 0.1 g/L and the Residual glucose concentration (100 nM peptide, transfer 16, after 96 hours of culture, Expt. 2 (repeat), Table 45) was 0.0 g/L. It also gave a Butanol concentration [10] of 5.55 g/L, a Butanol productivity [10] of 0.06 g butanol/L-h and a Butanol yield [10] of 0.09 g butanol/g/glucose. It also gave a Butanol concentration (100 nM peptide, transfer 19, after 96 hours of culture, Expt. 2 (repeat), Table 58) of 2.61 g/L, a Residual glucose concentration [10] of 0.0 g/L and a Residual glucose concentration (100 nM peptide, transfer 19, after 96 hours of culture, Expt. 2 (repeat), Table 45) of 0.0 g/L. For the same substance, the Butanol concentration [11] was 13.86 g/L, the Butanol productivity [11] was 0.14 g butanol/L-h and the Butanol yield [11] was 0.23 g butanol/g/glucose. The Butanol concentration (100 nM peptide, transfer 22, after 96 hours of culture, Expt. 2 (repeat), Table 58) was 3.41 g/L, the Residual glucose concentration [11] was 0.6 g/L and the Residual glucose concentration (100 nM peptide, transfer 22, after 96 hours of culture, Expt. 2 (repeat), Table 45) was 0.1 g/L. It also gave a Butanol concentration [12] of 7.20 g/L, a Butanol productivity [12] of 0.07 g butanol/L-h and a Butanol yield [12] of 0.12 g butanol/g/glucose. It also gave a Butanol concentration (100 nM peptide, transfer 24, after 96 hours of culture, Expt. 2 (repeat), Table 58) of 3.29 g/L, a Residual glucose concentration [12] of 0.1 g/L and a Residual glucose concentration (100 nM peptide, transfer 24, after 96 hours of culture, Expt. 2 (repeat), Table 45) of 0.1 g/L. For the same substance, the “Increase in butanol yield” value (BP1106213, batch cultures (summary of findings)) was “more than 50%”, the “Transfers over which butanol production was enhanced” value (BP1106213, sequential batch cultures (summary of findings)) was “transfer 4 through transfer 16” and the Butanol productivity [13] was 0.12 g butanol/1-hour. For the same substance, the Butanol yield [13] was 0.20 g butanol/g glucose, the “Butanol yield and productivity greater than untreated control” value [13] was “more than 50%” and the “Effect on butanol production versus untreated control” value (BP1106213 first experiment, 100 nM) was “generally resulted in decreased butanol production, or no difference from the untreated control”. For the same substance, the Glucose consumption (BP1106213 first experiment, all treated and untreated cultures, transfer 4 through transfer 19) was roughly 100%, the “Effect on butanol production versus untreated control” value (BP1106213 repeated (second) experiment, on the whole) was “inhibit butanol production” and the “Increase in butanol over untreated control” value (SEQ ID NO: 144 first experiment, 25 nM, transfer 4) was 31%. The “Increase in butanol over untreated control” value (SEQ ID NO: 144 first experiment, 25 nM, transfer 10) was 57%, the “Increase in butanol over untreated control” value (SEQ ID NO: 144 first experiment, 25 nM, transfer 16) was 21% and the “Increase in butanol over untreated control” value (SEQ ID NO: 144 first experiment, 50 nM, transfer 4) was 25%. For the same substance, the “Increase in butanol over untreated control” value (SEQ ID NO: 144 first experiment, 50 nM, transfer 10) was 46%, the “Increase in butanol over untreated control” value (SEQ ID NO: 144 first experiment, 50 nM, transfer 16) was 35% and the “Increase in butanol over untreated control” value (SEQ ID NO: 144 second experiment, 25 nM, transfer 13) was 283%. The “Increase in butanol over untreated control” value (SEQ ID NO: 144 second experiment, 25 nM, transfer 16) was 10%, the “Increase in butanol over untreated control” value (SEQ ID NO: 144 second experiment, 50 nM, transfer 13) was 85% and the “Effect on differentiation and butanol production” value (some sequential cultures) was “inducer of differentiation and butanol production”.
